# Test results taken from PubChem BioAssay (NCI).
#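 96-well plates; 48 h exposure; 5 concentrations. Endpoints by linear interpolation between flanking doses. Not reached: highest tested concentration assigned. At the TGI there is no net growth.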
# Key:
# Test in all cases: growth of human tumour cells (NCI), 48 h
# [1] = system: RPMI-8226 leukemia
# [2] = system: NCI-H460 lung
# [3] = system: A549 NSCLC
# [4] = system: RXF 393 renal
# [5] = system: MDA-MB-231 breast
# [6] = system: U251 CNS
# [7] = system: HOP-92 NSCLC
# [8] = system: SR leukemia
# [9] = system: SF-268 CNS
# [10] = system: SW-620 colon
# [11] = system: OVCAR-8 ovarian
# [12] = system: IGROV1 ovarian
# [13] = system: SK-OV-3 ovarian
# [14] = system: HOP-62 NSCLC
# [15] = system: HCT-116 colon
# [16] = system: OVCAR-4 ovarian
# [17] = system: HCC-2998 colon
Compound,TGI [1] [µM],TGI [2] [µM],TGI [3] [µM],TGI [4] [µM],TGI [5] [µM],TGI [6] [µM],TGI [7] [µM],TGI [8] [µM],TGI [9] [µM],TGI [10] [µM],TGI [11] [µM],TGI [12] [µM],TGI [13] [µM],TGI [14] [µM],TGI [15] [µM],TGI [16] [µM],TGI [17] [µM]
CC1(C)CC(=O)c2c(nc3c(ccc4ccccc43)c2-c2ccc(NC(=O)CCC(=O)Nc3ccc(-c4c5c(nc6c4ccc4ccccc46)CC(C)(C)CC5=O)cc3)cc2)C1,> 100,> 100,> 100,> 100,> 100,> 100,> 100,> 100,> 100,> 100,> 100,> 100,> 100,> 100,> 100,,
Cc1cccc2oc3c(c(=O)c12)CC(O)C(C)(C)O3 (stereo not drawn),> 100,> 100,> 100,> 100,,> 100,> 100,> 100,> 100,> 100,,> 100,> 100,> 100,> 100,> 100,> 100
COC(=O)CCC1(CCC(=O)OC)CCCCCCC(CCC(=O)OC)(CCC(=O)OC)C(=O)C1=O,> 100,> 100,> 100,> 100,,> 100,> 100,,> 100,,> 100,> 100,> 100,> 100,> 100,,> 100
COc1ccc(-c2c(-c3ccc(OC)cc3)n3c(=O)n(C)c(=O)n23)cc1,> 100,,> 100,> 100,> 100,> 100,76,,,> 100,52.9,> 100,> 100,> 100,> 100,> 100,> 100
c1ccc2cc3c(NC4=NCCO4)cccc3cc2c1,> 100,> 100,> 100,> 100,> 100,> 100,74,> 100,> 100,> 100,> 100,> 100,> 100,> 100,> 100,> 100,
O=c1[nH]ncc2[nH]c3c4ccccc4ccc3c12,> 100,> 100,65.6,> 100,,90.7,87.1,> 100,> 100,> 100,> 100,,> 100,> 100,> 100,> 100,> 100
CCCCc1ccc(-n2sc3ncc(-c4ccccc4)cc3c2=O)cc1,> 100,> 100,> 100,> 100,,> 100,> 100,> 100,,> 100,> 100,> 100,> 100,> 100,> 100,> 100,> 100
